From patent US20130136811A1, “Compositions and Methods for Pain Reduction” (priority 2010, published 2013)
Values joined by “and” are separate entries in the source; they are usually repeats but may differ in a detail not shown here. Identical values can stand only once.

Assays:
[1] = system: primary cultures of mouse cortical neurons; experiment: NMDAR-mediated excitotoxicity, LDH cell death assay; type: cell-based; settings: for neuroprotective effect (% protection): NMDA 200 μM 5 minutes, glycine 10 μM, LDH 24 hours after
Experimental: Studies were carried out to determine whether application of Wogonin can prevent N-methyl-D-Aspartate receptor (NMDAR)-mediated excitotoxicity in primary neuronal cultures from mouse cortex in vitro. In particular, detailed dose/response curves of Wogonin applied together with and for the duration of application of NMDA were generated. NMDAR-induced cytotoxicity can lead to fulminant cell death, necrosis, or a delayed form of cell death (apoptosis). While necrosis leads to immediate cell lysis, apoptotic cell death develops over time and is distinguished by a number of criteria such as characteristic morphological changes and DNA fragmentation. The LDH assay was used for the determination of cell death. This assay assesses primary necrosis as well as secondary, necrotic cell death subsequent to apoptosis.
For these experiments, cytotoxicity assays were conducted in primary cultures of mouse cortical neurons after 10 days in vitro using an art-recognized assay systema (Sun X, Chan L N, Gong X, Sucher N J. N-methyl-D-Aspartate receptor antagonist activity in traditional Chinese stroke medicines. NeuroSignals, 2003; 12:31-38.) Cultured neurons were exposed to NMDA (200 μM; 5 minutes) and co-agonist glycine (10 μM) in the nominal absence of magnesium and the presence of increasing concentrations of Wogonin. Measurements were performed for each dose of Wogonin in triplicate in at least three independent experiments. Wogonin was added to the culture in three different ways: 1) before, concomitant with and after NMDA, 2) concomitant with and after NMDA and 3) after NMDA. Twenty-four hours after exposure to NMDA cell death is determined by colorimetric lactate dehydrogenase (LDH) assay.

[2] = system: mouse formalin pain model; experiment: mouse formalin pain model (paw licking); type: in vivo; settings: for Duration of Licking: 200 mg/kg, individual animals 01-08; for Area Under the Curve, Drug Treated: 200 mg/kg i.p.
Experimental: The formalin test for antinociceptive activity is described in numerous publications, e.g., Hunskaar, S. O. B. Fasmer, and K. Hole, J. Neurosci. Methods 14: 69-76 (1985). The formalin test is a chemically-induced tonic pain model in which biphasic changes of nociceptive behavior are assessed and spinal/supraspinal plasticity of nociception is considered as a molecular basis for neuropathic pain particularly during the second (late) phase of the test, during which most clinically used drugs against neuropathic pain are active. The formalin test is accepted as an art recognized model of persistent clinical pain.
The formalin test (Wheeler-Aceto H, Porreca F, Cowan A. The rat paw formalin test: comparison of noxious agents. Pain 1990; 40:229-38) involves injection of 0.5% formalin into the mouse hind paw. The injection elicits a distinct biphasic behavioral profile in response to the formalin injection characterized by licking of the affected paw, and the number of licks is measured as a proxy for perceived pain. The first (acute) phase corresponds to the direct stimulation of peripheral fibers, while the second (inflammatory) phase is caused by the release of inflammatory mediators from the damaged tissue and nerve endings. Thus, this model is ideally suited to test the efficacy of Wogonin against the acute and chronic hyper-responsive neuronal discharges following activation of peripheral nerve fibers.
The results of the formalin test are given both as raw data (“Response”) and in an aggregate, analyzed form (“Analysis”). In the Response section, each Trial involves sixteen animals, eight controls given an i.p. injection of vehicle and eight given Wogonin at a specified dose. The data recorded for each animal is the amount of time spent licking the affected hind paw in a two-minute period. These two-minute periods occur at five-minute intervals and continue for […]. […] From this plot, the area under the cure (AUC) is determined for each animal during both the acute and inflammatory stages. The AUC for each phase is shown in the analysis section of the data sheet for both control and Wogonin-treated animals. The AUC for each Wogonin-treated animal is compared to the average result from the control group, yielding an average percent of control (reported with the SEM and p value). Significant reductions in this number indicate a reduction in licking, and, presumably, a reduction of perceived pain.
Male Swiss Webster NIH mice (20-30 g; Harlan, San Diego, Calif.) were used in the experiments described herein. Food was withdrawn on the day of experiment. Mice were placed in Plexiglass jars for at least 1 hour to accommodate to the environment. Following the accommodation period, mice were weighed and given Wogonin administered intraperitoneal (i.p.) or the appropriate volume of vehicle (10% Tween-80). Fifteen minutes after the i.p. dosing, mice were injected with formalin (20 μL of 5% formaldehyde solution in saline) into the dorsal surface of the right hind paw. Mice were transferred to the Plexiglass jars and monitored for the amount of time spent licking or biting the injected paw. Periods of licking and biting were recorded in 5 minute intervals for 40 minutes after the formalin injection. All experiments were done in a blinded manner. The early phase (acute) of the formalin response is measured as licking/biting between 0-10 minutes, and the late phase (inflammatory) is measured from 10-40 minutes. Differences between vehicle and Wogonin-treated groups are analyzed by one-way analysis of variance (ANOVA). A P value <0.05 is considered significant. Activity in blocking the acute and second phase of formalin-induced paw-licking activity is indicative that compounds are efficacious for acute and chronic pain. A significant response to both the acute and the inflammatory phases of the test was observed.

COc1c(O)cc(O)c2c(=O)cc(-c3ccccc3)oc12 [Wogonin, 5,7-dihydroxy-8-methoxyflavone]
neuroprotective effect (% protection) ([1]; 10^−4 M Wogonin): > 75%
neuroprotective effect (% protection) ([1]; 10^−9 M Wogonin): 0%
IC50 ([1]; Cortical neurone, mouse cortical neurons, LDH assay, read-out: IC50, inhibition of neuronal death on exposure to N-methyl-D-aspartate): 2000 nM
Duration of Licking ([2]; 0 mm): 0.00 sec (3×) and 35.48 sec and 21.75 sec and 53.96 sec and 44.26 sec and 32.29 sec
Duration of Licking ([2]; 5 min): 0.00 s
Duration of Licking ([2]; 10 min): 0.00 s
Duration of Licking ([2]; 20 min): 0.00 sec (7×) and 16.00 sec
Duration of Licking ([2]; 25 min): 0.00 sec (5×) and 3.89 sec and 20.61 sec and 10.96 sec
Duration of Licking ([2]; 30 min): 0.00 sec (4×) and 29.12 sec and 55.07 sec and 2.95 sec and 37.69 sec
Duration of Licking ([2]; 35 min): 0.00 sec (6×) and 21.24 sec and 12.73 sec
Duration of Licking ([2]; 40 min): 0.00 sec (6×) and 20.18 sec and 27.36 sec
Area Under the Curve, Drug Treated ([2]; Acute phase): 58.7
Area Under the Curve, Drug Treated ([2]; Inflammatory phase): 146.3
overt toxicity ([2]; mouse models): Overt toxicity was not seen
